Measurements: US10059663B2, “Aromatic compound and use thereof” (Kyoto Pharmaceutical Industries, Ltd., priority 2013, dated 2018)

Tested on: Mouse bone marrow-derived mesenchymal cell line ST2 cells
Assay: Osteoblast differentiation test (alkaline phosphatase activity)
Assay type: cell-based
Conditions: ST-2, 96 h, at 0.1 μg/mL, 4 days of culture, absorbance at 405 nm, DMSO control = 100%, read-out: alkaline phosphatase activity (increase rate in absorbance, control as 100%)
Protocol: Mouse bone marrow-derived mesenchymal cell line ST2 cells (source of supply: RIKEN) were seeded in α-MEM medium containing 10% fetal bovine serum (source of supply: GIBCO BRL Cat. No. 12000-022) in a 96 well plate at a cell density of 4×10^3 cells/0.1 mL/well, and cultured for 24 hr under the conditions of 37° C., 5% CO2. Then, each test compound was added at a final concentration of 0.001-10 μM, and the final concentration 0.1% (v/v) of DMSO was added to the control. After 4 days of culture, alkaline phosphatase (ALP) activity was measured by the following method.
The medium in the cultured 96 well plate was removed, the cells were washed with PBS buffer (KCl 0.2 g/L, KH2PO4 0.2 g/L, Na2HPO4.12H2O 2.9 g/L, NaCl 8 g/L) (100 μL/well), cell lysate (10 mM MgCl2, 2% (v/v) Triton X-100) (50 μL/well) was added, and the mixture was stirred at room temperature for 3 min. A substrate solution (50 mM diethanolamine (Wako Pure Chemical Industries, Ltd. Cat. No. 099-03112), 20 mM […] (Nacalai Tesque Cat. No. 25019-81)) (50 μL/well) was added, and the mixture was left standing at room temperature for 9 min. 1N NaOH 50 μL/well was added to discontinue the reaction, and the absorbance at 405 nm was measured by a microplate reader (Dainippon Pharmaceutical Co., Ltd.)
An increase rate (%) in the absorbance by the test compound was calculated based on the absorbance of the control as 100%, and the differentiation degree of the osteoblast was evaluated.

| SMILES | activity at 0.1 µg/mL [%] |
| --- | --- |
| COc1cc(Nc2ccc(N3CC(OCCO)C3)cc2)c([N+](=O)[O-])cc1F [Example 2, 2-{1-[4-(4-fluoro-5-methoxy-2-nitrophenylamino)phenyl]azetidin-3-yloxy}ethanol] | ≥ 200 |
| NC(=O)c1ccc([N+](=O)[O-])c(Nc2ccc(N3CC(OCCO)C3)cc2)c1 [Example 5, 3-{4-[3-(2-hydroxyethoxy)azetidin-1-yl]phenylamino}-4-nitrobenzamide] | ≥ 200 |
| CC(=O)c1ccc(C(N)=O)cc1Nc1ccc(N2CC(OCCO)C2)cc1 [Example 6, 4-acetyl-3-{4-[3-(2-hydroxyethoxy)azetidin-1-yl]phenylamino}benzamide] | ≥ 200 |
| COc1cc(Nc2ccc(N3CC(N4CCC(CO)CC4)C3)cc2)c(NC(C)=O)cn1 [Example 8, N-(4-{4-[3-(4-hydroxymethylpiperidin-1-yl)azetidin-1-yl]phenylamino}-6-methoxypyridin-3-yl)acetamide] | ≥ 200 |
| COc1cc(Nc2ccc(N3CC(N4CCOCC4)C3)cc2)c(NC(C)=O)cn1 [Example 9, N-{6-methoxy-4-[4-(3-morpholin-4-ylazetidin-1-yl)phenylamino]pyridin-3-yl}acetamide] | ≥ 200 |
| COc1cc(Nc2ccc(N3CCN(CC(C)(C)C(=O)O)CC3)cc2)c([N+](=O)[O-])cc1F [Example 13, 3-{4-[4-(4-fluoro-5-methoxy-2-nitrophenylamino)phenyl]piperazin-1-yl}-2,2-dimethylpropionic acid] | ≥ 200 |
| COc1cc(Nc2ccc(N3CC(OCCNS(N)(=O)=O)C3)cc2)c(NC(C)=O)cn1 [Example 16, N-(4-{4-[3-(2-sulfamoylaminoethoxy)azetidin-1-yl]phenylamino}-6-methoxypyridin-3-yl)acetamide] | ≥ 200 |
| CC(=O)c1ccc(C(N)=O)cc1Nc1ccc(OCCOC2CCOCC2)cc1 [Example 17, 4-acetyl-3-{4-[2-(tetrahydropyran-4-yloxy)ethoxy]phenylamino}benzamide] | ≥ 200 |
| CC(F)(F)c1ccc(C(N)=O)cc1Nc1ccc(OCCOC2CCOCC2)cc1 [Example 18, 4-(1,1-difluoroethyl)-3-{4-[2-(tetrahydropyran-4-yloxy)ethoxy]phenylamino}benzamide] | ≥ 200 |
| CC(=O)c1ccc(C(N)=O)cc1Nc1ccc(OCCOC2CCS(=O)(=O)CC2)cc1 [Example 20, 4-acetyl-3-{4-[2-(1,1-dioxohexahydro-1λ^6-thiopyran-4-yloxy)ethoxy]phenylamino}benzamide] | ≥ 200 |
| CC(=O)c1ccc(C(N)=O)cc1Oc1ccc(N2CC(OCCO)C2)cc1 [Example 28, 4-acetyl-3-{4-[3-(2-hydroxyethoxy)azetidin-1-yl]phenoxy}benzamide] | ≥ 200 |
| CC(=O)c1ccc(C(N)=O)c(Oc2ccc(N3CC(OCCO)C3)cc2)c1 [Example 29, 4-acetyl-2-{4-[3-(2-hydroxyethoxy)azetidin-1-yl]phenoxy}benzamide] | ≥ 200 |
| CC(=O)c1ccc(C(N)=O)cc1Oc1ccc(N2CCC(OCCO)CC2)cc1 [Example 30, 4-acetyl-3-{4-[4-(2-hydroxyethoxy)piperidin-1-yl]phenoxy}benzamide] | ≥ 200 |
| CC(=O)c1ccc(C(N)=O)cc1Oc1ccc(OCCOCCOC(C)C)cc1 [Example 33, 4-acetyl-3-{4-[2-(2-isopropoxyethoxy)ethoxy]phenoxy}benzamide] | ≥ 200 |
| CC(=O)c1ccc(C(N)=O)cc1Oc1ccc(/C=C/COC2CCOCC2)cc1 [Example 34, 4-acetyl-3-{4-[3-(tetrahydropyran-4-yloxy)propenyl]phenoxy}benzamide] | ≥ 200 |
| NC(=O)c1ccc(C(F)F)c(Oc2ccc(OCCOC3CCOCC3)cc2)c1 [Example 35, 4-difluoromethyl-3-{4-[2-(tetrahydropyran-4-yloxy)ethoxy]phenoxy}benzamide] | ≥ 200 |
| CC(F)c1ccc(C(N)=O)cc1Oc1ccc(OCCOC2CCOCC2)cc1 (stereo not drawn) [Example 39, 4-(1-fluoroethyl)-3-{4-[2-(tetrahydropyran-4-yloxy)ethoxy]phenoxy}benzamide] | ≥ 200 |
| CC(=O)c1ccc(C(N)=O)cc1Oc1ccc(COCCOC(C)C)cc1 [Example 40, 4-acetyl-3-[4-(2-isopropoxyethoxymethyl)phenoxy]benzamide] | ≥ 200 |
| CC(=O)c1ccc(C(N)=O)cc1Oc1ccc(COC2CCOCC2)cc1 [Example 41, 4-acetyl-3-[4-(tetrahydropyran-4-yloxymethyl)phenoxy]benzamide] | ≥ 200 |
| CCC(=O)Nc1cnc(OC)cc1Nc1ccc(N2CC(OCCO)C2)cc1 [Example 45] | ≥ 200 |
| NC(=O)c1ccc(C(F)(F)F)c(Nc2ccc(N3CC(OCCO)C3)cc2)c1 [Example 47] | ≥ 200 |

| SMILES | activity at 0.1 µg/mL [%] |
| --- | --- |
| CNC(=O)c1ccc([N+](=O)[O-])c(Nc2ccc(N3CC(OCCO)C3)cc2)c1 [Example 48] | ≥ 200 |
| NC(=O)c1ccc([N+](=O)[O-])c(Nc2ccc(OCCOC3CCOCC3)cc2)c1 [Example 50] | ≥ 200 |
| CC(=O)c1ccc(C(N)=O)cc1Nc1ccc(OCCOC2CCOC2)cc1 (stereo not drawn) [Example 53] | ≥ 200 |
| CC(=O)c1ccc(C(N)=O)c(Nc2ccc(OCCOC3CCOCC3)cc2)c1 [Example 57] | ≥ 200 |
| CC(=O)c1ccc(C(N)=O)c(Nc2ccc(OCCOC3CCS(=O)(=O)CC3)cc2)c1 [Example 58] | ≥ 200 |
| NC(=O)c1ccc(C(F)(F)F)c(Oc2ccc(N3CC(OCCO)C3)cc2)c1 [Example 62] | ≥ 200 |
| NC(=O)c1ccc([N+](=O)[O-])c(Oc2ccc(N3CCC(OCCO)CC3)cc2)c1 [Example 63] | ≥ 200 |
| NC(=O)c1ccc(C(F)(F)F)c(Oc2ccc(OCCOC3CCOCC3)cc2)c1 [Example 64] | ≥ 200 |
| CC(C)OCCOCCOc1ccc(Oc2cc(C(N)=O)ccc2C(F)(F)F)cc1 [Example 65] | ≥ 200 |
| CC(=O)c1ccc(C(N)=O)cc1Oc1ccc(CCCOC2CCOCC2)cc1 [Example 66] | ≥ 200 |
| CC(=O)c1ccc(C(N)=O)c(Oc2ccc(OCCOC3CCOCC3)cc2)c1 [Example 70] | ≥ 200 |
| CC(F)(F)c1ccc(C(N)=O)cc1Oc1ccc(OCCOC2CCOCC2)cc1 [Example 74] | ≥ 200 |
| NC(=O)c1ccc(C(F)(F)F)c(Oc2ccc(COC3CCOCC3)cc2)c1 [Example 82] | ≥ 200 |
| NC(=O)c1ccc(C(F)F)c(Oc2ccc(COC3CCOCC3)cc2)c1 [Example 83] | ≥ 200 |
| C[C@@H](O)c1ccc(C(N)=O)cc1Oc1ccc(N2CC(OCCO)C2)cc1 [Example 85] | ≥ 200 |
| COc1cc(Nc2ccc(N3CC(O)C3)cc2)c(NC(C)=O)cn1 [Example 88] | ≥ 200 |
| COc1cc(Nc2ccc(N3CC(OCC4CCCO4)C3)cc2)c(NC(C)=O)cn1 (stereo not drawn) [Example 89] | ≥ 200 |
| NC(=O)c1ccc([N+](=O)[O-])c(Nc2ccc(N3CC(OCC4CCCO4)C3)cc2)c1 (stereo not drawn) [Example 90] | ≥ 200 |
| CC(=O)Nc1ccc(C(N)=O)cc1Nc1ccc(N2CC(OCC3CCCO3)C2)cc1 (stereo not drawn) [Example 91] | ≥ 200 |
| CC(=O)c1ccc(C(N)=O)cc1Nc1ccc(N2CC(OCC3CCCO3)C2)cc1 (stereo not drawn) [Example 92] | ≥ 200 |
| C[C@@H](O)c1ccc(C(N)=O)cc1Oc1ccc(N2CC(CO)C2)cc1 [Example 94] | ≥ 200 |
